Legend:
Assay in all cases: DSF selectivity screening
Assay type in all cases: binding
Settings in all cases: 10 μM compound
CHEK2A = CHEK2A (Homo sapiens, UniProt O96017)
Description: (§1) The assay was performed as previously described.[29],[35] Briefly, recombinant protein kinase domains at a concentration of 2 μM were mixed with a 10 μM compound in a buffer containing 20 mM HEPES, pH 7.5, and 500 mM NaCl. SYPRO Orange (5000×, Invitrogen) was added as a fluorescence probe (1 μL per mL). Subsequently, temperature-dependent protein unfolding profiles were measured using a QuantStudio 5 real-time PCR machine (Thermo Fisher). Excitation and emission filters were set to 465 and 590 nm, respectively. The temperature was raised with a step rate of 3 °C per minute. Data points were analyzed with internal software (Thermal Shift Software version 1.4, Thermo Fisher) using the Boltzmann equation to determine the inflection point of the transition curve (Table S4).

PDK4A = PDK4A (Homo sapiens, UniProt Q16654)
PDK4A, sequence (Q16654 whole entry): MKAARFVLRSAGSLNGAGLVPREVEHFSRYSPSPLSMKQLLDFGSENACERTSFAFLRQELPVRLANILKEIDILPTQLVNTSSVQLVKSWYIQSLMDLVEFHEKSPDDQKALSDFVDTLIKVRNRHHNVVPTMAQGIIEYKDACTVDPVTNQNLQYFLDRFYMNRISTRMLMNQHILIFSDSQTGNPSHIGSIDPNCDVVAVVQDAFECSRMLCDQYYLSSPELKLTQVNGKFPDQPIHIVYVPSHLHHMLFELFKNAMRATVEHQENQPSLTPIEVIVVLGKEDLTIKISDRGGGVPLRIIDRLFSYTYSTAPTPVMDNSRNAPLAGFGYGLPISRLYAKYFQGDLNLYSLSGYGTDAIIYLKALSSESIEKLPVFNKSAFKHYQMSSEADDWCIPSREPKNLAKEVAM
Description: as §1

GPRK5A = GPRK5A (Homo sapiens, UniProt P34947)
GPRK5A, sequence (P34947 186-514): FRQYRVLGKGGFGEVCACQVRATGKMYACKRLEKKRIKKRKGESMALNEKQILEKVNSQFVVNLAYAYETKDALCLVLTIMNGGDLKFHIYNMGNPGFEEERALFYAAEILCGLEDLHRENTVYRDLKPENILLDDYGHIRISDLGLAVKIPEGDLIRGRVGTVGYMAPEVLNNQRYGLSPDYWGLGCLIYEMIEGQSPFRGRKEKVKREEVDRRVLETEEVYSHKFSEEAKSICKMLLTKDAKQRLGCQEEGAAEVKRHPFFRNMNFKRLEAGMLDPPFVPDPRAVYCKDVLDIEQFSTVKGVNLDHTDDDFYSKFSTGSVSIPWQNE
Description: as §1

EPHA5A = EPHA5A (Homo sapiens, UniProt P54756)
Description: as §1

DYRK2A = DYRK2A (Homo sapiens, UniProt Q92630)
DYRK2A, sequence (Q92630 whole entry): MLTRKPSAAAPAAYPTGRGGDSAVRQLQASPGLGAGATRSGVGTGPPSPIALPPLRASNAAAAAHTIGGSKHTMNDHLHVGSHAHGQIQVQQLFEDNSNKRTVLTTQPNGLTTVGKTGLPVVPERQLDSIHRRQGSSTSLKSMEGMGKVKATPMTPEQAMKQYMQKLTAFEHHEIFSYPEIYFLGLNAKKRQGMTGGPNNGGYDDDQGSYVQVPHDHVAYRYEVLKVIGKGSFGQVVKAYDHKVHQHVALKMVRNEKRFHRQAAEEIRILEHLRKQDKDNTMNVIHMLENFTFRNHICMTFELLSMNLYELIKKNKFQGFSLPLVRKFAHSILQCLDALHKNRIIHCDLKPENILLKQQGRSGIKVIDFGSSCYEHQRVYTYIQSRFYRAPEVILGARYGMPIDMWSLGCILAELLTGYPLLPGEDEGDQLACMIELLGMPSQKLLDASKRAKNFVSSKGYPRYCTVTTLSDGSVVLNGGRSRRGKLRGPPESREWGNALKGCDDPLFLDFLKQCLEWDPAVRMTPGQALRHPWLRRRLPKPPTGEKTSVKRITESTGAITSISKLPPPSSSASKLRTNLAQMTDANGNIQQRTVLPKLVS
Description: as §1

PAK4A = PAK4A (Homo sapiens, UniProt O96013)
Description: as §1

CSNK1DA = CSNK1DA (Homo sapiens, UniProt P48730)
Description: as §1

GAKA = GAKA (Homo sapiens, UniProt O14976)
Description: as §1

MAPKAPK2A = MAPKAPK2A (Homo sapiens, UniProt P49137)
Description: as §1

BMXA = BMXA (Homo sapiens, UniProt P51813)
Description: as §1

STK10A = STK10A (Homo sapiens, UniProt O94804)
Description: as §1

GSK3BB = GSK3BB (Homo sapiens, UniProt P49841)
Description: as §1

CSNK2A1A = CSNK2A1A (Homo sapiens, UniProt P68400)
Description: as §1

CDKL1A = CDKL1A (Homo sapiens, UniProt Q00532)
Description: as §1

MAP2K7 = MAP2K7 (Homo sapiens, UniProt O14733)
Description: as §1

TTKA = TTKA (Homo sapiens, UniProt P33981)
Description: as §1

MAP2K1A = MAP2K1A (Homo sapiens, UniProt Q02750)
MAP2K1A, sequence (Q02750 68-361): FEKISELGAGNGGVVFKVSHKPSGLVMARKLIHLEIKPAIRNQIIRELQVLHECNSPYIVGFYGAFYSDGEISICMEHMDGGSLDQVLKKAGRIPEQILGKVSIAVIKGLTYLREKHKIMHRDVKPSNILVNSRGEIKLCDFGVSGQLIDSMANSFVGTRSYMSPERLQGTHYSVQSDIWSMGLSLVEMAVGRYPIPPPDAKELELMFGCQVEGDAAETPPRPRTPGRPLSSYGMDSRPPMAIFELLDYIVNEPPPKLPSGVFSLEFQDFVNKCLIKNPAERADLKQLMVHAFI
Description: as §1

CASKA = CASKA (Homo sapiens, UniProt O14936)
Description: as §1

CAMK1DA = CAMK1DA (Homo sapiens, UniProt Q8IU85)
Description: as §1

BMP2KA = BMP2KA (Homo sapiens, UniProt Q9NSY1)
Description: as §1

AURKBA = AURKBA (Homo sapiens, UniProt Q96GD4)
Description: as §1

MARK3A = MARK3A (Homo sapiens, UniProt P27448)
Description: as §1

TAF1A = test system: TAF1A
Description: as §1

BRAFA = BRAFA (Homo sapiens, UniProt P15056)
Description: as §1

STK17AA = STK17AA (Homo sapiens, UniProt Q9UEE5)
STK17AA, sequence (Q9UEE5 61-321): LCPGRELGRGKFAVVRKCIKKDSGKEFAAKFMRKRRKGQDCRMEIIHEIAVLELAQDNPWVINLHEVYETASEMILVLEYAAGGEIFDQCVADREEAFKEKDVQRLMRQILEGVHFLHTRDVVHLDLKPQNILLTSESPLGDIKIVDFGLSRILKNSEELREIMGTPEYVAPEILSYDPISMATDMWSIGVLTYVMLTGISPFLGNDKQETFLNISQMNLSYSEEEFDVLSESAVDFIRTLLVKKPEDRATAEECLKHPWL
Description: as §1

ULK3A = ULK3A (Homo sapiens, UniProt Q6PHR2)
Description: as §1

FGFR3A = FGFR3A (Homo sapiens, UniProt P22607)
FGFR3A, sequence (P22607 23-806): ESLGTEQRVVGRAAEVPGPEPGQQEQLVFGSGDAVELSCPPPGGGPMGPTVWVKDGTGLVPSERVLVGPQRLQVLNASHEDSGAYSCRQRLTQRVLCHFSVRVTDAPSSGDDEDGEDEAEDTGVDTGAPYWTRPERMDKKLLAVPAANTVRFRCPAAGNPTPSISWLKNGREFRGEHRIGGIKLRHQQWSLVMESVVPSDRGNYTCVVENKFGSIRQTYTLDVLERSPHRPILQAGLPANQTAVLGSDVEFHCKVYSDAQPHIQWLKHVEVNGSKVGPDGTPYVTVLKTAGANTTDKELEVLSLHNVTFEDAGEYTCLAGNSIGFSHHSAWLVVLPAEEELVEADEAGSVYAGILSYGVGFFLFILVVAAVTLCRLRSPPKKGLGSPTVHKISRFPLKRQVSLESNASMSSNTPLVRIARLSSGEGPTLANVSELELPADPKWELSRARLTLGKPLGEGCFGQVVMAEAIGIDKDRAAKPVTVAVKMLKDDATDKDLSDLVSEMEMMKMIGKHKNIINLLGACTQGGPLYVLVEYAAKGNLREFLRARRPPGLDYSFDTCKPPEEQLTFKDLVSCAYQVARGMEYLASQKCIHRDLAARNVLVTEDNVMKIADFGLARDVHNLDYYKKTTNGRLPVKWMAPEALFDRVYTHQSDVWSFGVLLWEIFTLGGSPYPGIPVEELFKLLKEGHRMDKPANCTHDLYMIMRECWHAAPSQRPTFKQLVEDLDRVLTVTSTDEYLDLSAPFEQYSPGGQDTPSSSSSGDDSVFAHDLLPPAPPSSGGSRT
Description: as §1

DAPK1A = DAPK1A (Homo sapiens, UniProt P53355)
Description: as §1

TLK1A = TLK1A (Homo sapiens, UniProt Q9UKI8)
TLK1A, sequence (Q9UKI8 456-734): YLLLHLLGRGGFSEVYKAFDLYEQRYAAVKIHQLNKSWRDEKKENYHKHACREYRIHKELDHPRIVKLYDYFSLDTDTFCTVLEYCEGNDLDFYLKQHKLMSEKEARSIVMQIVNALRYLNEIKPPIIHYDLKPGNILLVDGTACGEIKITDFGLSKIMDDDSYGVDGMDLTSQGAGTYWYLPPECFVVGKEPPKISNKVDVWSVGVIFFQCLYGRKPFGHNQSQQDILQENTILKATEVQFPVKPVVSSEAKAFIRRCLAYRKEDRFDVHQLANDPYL
Description: as §1

EPHA7A = EPHA7A (Homo sapiens, UniProt Q15375)
EPHA7A, sequence (Q15375 590-899): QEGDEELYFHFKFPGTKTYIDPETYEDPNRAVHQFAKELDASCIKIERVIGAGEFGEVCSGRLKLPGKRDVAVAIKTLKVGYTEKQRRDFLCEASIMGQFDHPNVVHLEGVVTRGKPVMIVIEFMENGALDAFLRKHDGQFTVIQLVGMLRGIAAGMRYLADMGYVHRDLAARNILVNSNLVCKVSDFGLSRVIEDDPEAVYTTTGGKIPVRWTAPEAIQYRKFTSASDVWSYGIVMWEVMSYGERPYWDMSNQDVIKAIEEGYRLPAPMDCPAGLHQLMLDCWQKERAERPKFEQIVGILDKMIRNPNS
Description: as §1

CAMK1GA = CAMK1GA (Homo sapiens, UniProt Q96NX5)
CAMK1GA, sequence (Q96NX5 whole entry): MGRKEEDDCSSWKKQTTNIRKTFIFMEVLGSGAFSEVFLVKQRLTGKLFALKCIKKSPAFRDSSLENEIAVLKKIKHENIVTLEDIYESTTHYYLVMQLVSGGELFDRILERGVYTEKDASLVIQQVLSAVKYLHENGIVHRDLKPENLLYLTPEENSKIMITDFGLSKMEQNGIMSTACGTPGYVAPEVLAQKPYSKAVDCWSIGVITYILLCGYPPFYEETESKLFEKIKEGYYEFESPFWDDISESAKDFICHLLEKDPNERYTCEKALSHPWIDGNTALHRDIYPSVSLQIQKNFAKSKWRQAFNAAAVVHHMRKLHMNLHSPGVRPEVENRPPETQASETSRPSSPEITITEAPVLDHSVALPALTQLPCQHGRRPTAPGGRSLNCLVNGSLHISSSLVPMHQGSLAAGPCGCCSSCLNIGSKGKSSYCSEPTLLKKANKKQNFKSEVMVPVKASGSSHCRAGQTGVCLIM
Description: as §1

SRCA = SRCA (Homo sapiens, UniProt P12931)
Description: as §1

CAMK2BA = CAMK2BA (Homo sapiens, UniProt Q13554)
Description: as §1

MELKA = MELKA (Homo sapiens, UniProt Q14680)
Description: as §1

MAPK15A = MAPK15A (Homo sapiens, UniProt Q8TD08)
Description: as §1

STK3A = STK3A (Homo sapiens, UniProt Q13188)
STK3A, sequence (Q13188 16-313): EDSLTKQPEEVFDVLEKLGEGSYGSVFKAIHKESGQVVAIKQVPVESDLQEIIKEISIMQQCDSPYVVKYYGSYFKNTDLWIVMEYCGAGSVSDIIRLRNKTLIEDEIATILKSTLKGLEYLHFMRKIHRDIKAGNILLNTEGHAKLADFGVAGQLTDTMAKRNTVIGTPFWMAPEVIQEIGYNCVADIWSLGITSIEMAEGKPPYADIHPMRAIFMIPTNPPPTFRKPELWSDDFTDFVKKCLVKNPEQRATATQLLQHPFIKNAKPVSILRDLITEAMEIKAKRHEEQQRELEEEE
Description: as §1

GSG2A = GSG2A (Homo sapiens, UniProt Q8TF76)
Description: as §1

PLK4A = PLK4A (Homo sapiens, UniProt O00444)
PLK4A, sequence (O00444 2-275): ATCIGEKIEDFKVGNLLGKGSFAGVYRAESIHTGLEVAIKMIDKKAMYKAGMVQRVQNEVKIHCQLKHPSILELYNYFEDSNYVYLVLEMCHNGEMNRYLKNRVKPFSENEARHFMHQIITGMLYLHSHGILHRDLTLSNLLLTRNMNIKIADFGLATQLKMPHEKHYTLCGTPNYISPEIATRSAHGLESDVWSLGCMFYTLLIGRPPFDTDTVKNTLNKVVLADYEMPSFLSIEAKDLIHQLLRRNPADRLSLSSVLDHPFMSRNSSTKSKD
Description: as §1

STK38LA = STK38LA (Homo sapiens, UniProt Q9Y2H1)
Description: as §1

OSR1A = OSR1A (Homo sapiens, UniProt O95747)
OSR1A, sequence (O95747 17-291): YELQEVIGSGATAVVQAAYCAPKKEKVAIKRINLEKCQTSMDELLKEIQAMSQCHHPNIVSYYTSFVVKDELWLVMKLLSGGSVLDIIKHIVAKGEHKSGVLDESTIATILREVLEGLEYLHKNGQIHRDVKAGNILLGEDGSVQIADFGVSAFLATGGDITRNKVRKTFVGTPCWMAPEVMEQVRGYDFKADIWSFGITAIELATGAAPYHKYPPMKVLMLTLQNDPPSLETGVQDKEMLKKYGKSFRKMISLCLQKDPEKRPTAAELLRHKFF
Description: as §1

PAK1A = PAK1A (Homo sapiens, UniProt Q13153)
Description: as §1

CHEK2A, sequence (O96017 210-531): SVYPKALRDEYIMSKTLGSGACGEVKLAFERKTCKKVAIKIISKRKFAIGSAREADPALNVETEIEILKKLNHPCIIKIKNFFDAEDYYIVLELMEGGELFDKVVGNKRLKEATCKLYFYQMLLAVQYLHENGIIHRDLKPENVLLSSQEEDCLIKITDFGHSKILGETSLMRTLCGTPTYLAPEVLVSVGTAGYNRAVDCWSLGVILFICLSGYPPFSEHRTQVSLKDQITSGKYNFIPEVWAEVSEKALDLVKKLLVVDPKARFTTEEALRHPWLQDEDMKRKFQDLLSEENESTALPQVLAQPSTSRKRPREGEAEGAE

SMILES: CN1C(=O)[C@@H](N2CCc3c(nn(Cc4ccccc4)c3C(N)=O)C2=O)COc2cc(Cl)ccc21 [Compound 10, (S)-2-benzyl-6-(8-chloro-5-methyl-4-oxo-2,3,4,5-tetrahydrobenzo[b][1,4]oxazepin-3-yl)-7-oxo-4,5,6,7-tetrahydro-2H-pyrazolo[3,4-c]pyridine-3-carboxamide]
- ΔTm at 10 µM (CHEK2A): -0.1 °C
- ΔTm at 10 µM (PDK4A): 0 °C
- ΔTm at 10 µM (GPRK5A): -0.2 °C
- ΔTm at 10 µM (EPHA5A): 0 °C
- ΔTm at 10 µM (DYRK2A): 0.1 °C
- ΔTm at 10 µM (PAK4A): 0.1 °C
- ΔTm at 10 µM (CSNK1DA): 0.5 °C
- ΔTm at 10 µM (GAKA): 0 °C
- ΔTm at 10 µM (MAPKAPK2A): 0 °C
- ΔTm at 10 µM (BMXA): 0.1 °C
- ΔTm at 10 µM (STK10A): 0.4 °C
- ΔTm at 10 µM (GSK3BB): 0.1 °C
- ΔTm at 10 µM (CSNK2A1A): -0.1 °C
- ΔTm at 10 µM (CDKL1A): 0 °C
- ΔTm at 10 µM (MAP2K7): 1.1 °C
- ΔTm at 10 µM (TTKA): -0.3 °C
- ΔTm at 10 µM (MAP2K1A): 0.1 °C
- ΔTm at 10 µM (CASKA): 0.1 °C
- ΔTm at 10 µM (CAMK1DA): -0.2 °C
- ΔTm at 10 µM (BMP2KA): 0.3 °C
- ΔTm at 10 µM (AURKBA): 0.2 °C
- ΔTm at 10 µM (MARK3A): 0.3 °C
- ΔTM (TAF1A): 0.3 K
- ΔTm at 10 µM (BRAFA): 0.1 °C
- ΔTm at 10 µM (STK17AA): 0 °C
- ΔTm at 10 µM (ULK3A): 0.2 °C
- ΔTm at 10 µM (FGFR3A): 0.1 °C
- ΔTm at 10 µM (DAPK1A): 0.1 °C
- ΔTm at 10 µM (TLK1A): 0 °C
- ΔTm at 10 µM (EPHA7A): -0.1 °C
- ΔTm at 10 µM (CAMK1GA): -0.2 °C
- ΔTm at 10 µM (SRCA): 0.1 °C
- ΔTm at 10 µM (CAMK2BA): 0.1 °C
- ΔTm at 10 µM (MELKA): 0.1 °C
- ΔTm at 10 µM (MAPK15A): 0 °C
- ΔTm at 10 µM (STK3A): 0.2 °C
- ΔTm at 10 µM (GSG2A): 0.2 °C
- ΔTm at 10 µM (PLK4A): 0.2 °C
- ΔTm at 10 µM (STK38LA): 0 °C
- ΔTm at 10 µM (OSR1A): 0.4 °C
- ΔTm at 10 µM (PAK1A): 0.2 °C

— PMC12090182, “Repurposing of the RIPK1-Selective Benzo[1,4]oxazepin-4-one Scaffold for the Development of a Type III LIMK1/2 Inhibitor” (ACS Chemical Biology, 2025)
